Test results taken from patent US5104865A, “Iron complexes of hydroxypyridones useful for treating iron overload” (National Research Development Corporation, priority 1983, dated 1992).
Like-named read-outs stand apart in the source and are kept apart here. One block for each molecule: values may come before it.

Legend:
Human transferrin = biological target: T1, Human transferrin (Homo sapiens, UniProt P02787); assay: Mobilisation of iron from transferrin; type: biochemical; details: for Percentage of iron removed from transferrin after 6 hours: compound 4×10^-3 M, 59Fe(III) transferrin 10^-5 M, tris HCl 0.1M pH 7.4, 6 hours
T1 construct: purchased Sigma
T1 sequence (P02787 20-698): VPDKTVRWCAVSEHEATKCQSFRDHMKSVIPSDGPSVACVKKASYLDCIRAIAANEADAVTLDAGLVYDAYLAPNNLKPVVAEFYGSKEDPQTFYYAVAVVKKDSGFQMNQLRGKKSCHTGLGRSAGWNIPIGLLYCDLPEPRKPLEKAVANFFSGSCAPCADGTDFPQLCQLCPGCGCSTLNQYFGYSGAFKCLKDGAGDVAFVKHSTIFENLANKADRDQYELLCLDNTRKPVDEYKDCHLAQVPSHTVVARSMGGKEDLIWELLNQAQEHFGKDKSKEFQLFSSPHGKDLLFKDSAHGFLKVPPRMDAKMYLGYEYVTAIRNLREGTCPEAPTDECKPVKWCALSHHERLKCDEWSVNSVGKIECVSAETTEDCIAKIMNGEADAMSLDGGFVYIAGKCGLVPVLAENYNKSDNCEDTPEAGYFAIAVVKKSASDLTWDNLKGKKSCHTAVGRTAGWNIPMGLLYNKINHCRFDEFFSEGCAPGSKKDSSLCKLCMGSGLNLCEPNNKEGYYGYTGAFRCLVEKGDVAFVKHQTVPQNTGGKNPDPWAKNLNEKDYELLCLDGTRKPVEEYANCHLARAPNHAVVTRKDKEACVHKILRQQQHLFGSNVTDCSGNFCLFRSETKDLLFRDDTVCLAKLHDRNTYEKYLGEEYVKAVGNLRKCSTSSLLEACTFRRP
Protocol: Human transferrin (Sigma) was loaded with iron(III) by the method of Bates and Schlaback, J. Biol. Chem. (1973) 248, 3228. ^59 Iron (III) transferrin (10^-5 M) was incubated with a 4×10^-3 M solution in tris HCl (0.1M, pH 7.4) of one of various pyridones as indicated in Table 4 for periods of 6 hours.

Horse spleen ferritin [1] = biological target: T2, Horse spleen ferritin (Equus caballus, UniProt P02791); details: similar test, cited from earlier work
T2 construct: purchased Sigma; host or cells: horse spleen
T2 sequence (P02791 2-175 limits assumed): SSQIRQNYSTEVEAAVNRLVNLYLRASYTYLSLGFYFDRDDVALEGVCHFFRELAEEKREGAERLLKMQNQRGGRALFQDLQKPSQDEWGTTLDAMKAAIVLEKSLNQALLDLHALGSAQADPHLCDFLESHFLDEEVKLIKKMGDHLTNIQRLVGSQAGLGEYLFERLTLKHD

[2] = Affinity for iron(III) expressed as log Ksol; type: physicochemical
From the text: In order to solubilise iron(III) hydroxide, log Ksol must be greater than 0 and in order to remove iron from transferrin, log Ksol should be in excess of 6.0. The log Ksol values for the single ring compounds 3-hydroxyl-1-methylpyrid-2-one and 1,2-dimethyl-3-hydroxypyrid-4-one, by way of example, are 10.0 and 9.5, respectively, thus comparing favourably with those of the bidentate hydroxamates at about 4.0, of catechols at about 8.0, of desferrioxamine at 6.0, and of diethylenetriamine penta-acetic acid (DTPA) at 2.0.

[3] = 100 uM, pH 7.4
Protocol: (§1) The partition coefficient Kpart, being the ratio (concentration of compound in n-octanol)/(concentraction of compound in aqueous phase) on partition between n-octanol and aqueous tris hydrochloride (20 mM, pH 7.4), is measured by spectrophotometry at 20° C. for various of the compounds of the previous Examples and for their iron(III) complexes (at 10^-4 M). […] Acid washed glassware is used throughout and, following mixing of 5 ml of the 10^-4 M aqueous solution with 5 ml n-octanol for 1 minute, the aqueous n-octanol mixture is centrifuged at 1,000 g for 30 seconds. The two resulting phases are separated for a concentration determination by spectrophotometry on each. For the metal-free linked hydroxypyridone compounds, the range 220-340 nm is used for concentration determinations whilst for the iron complexes, the range 340-640 nm is used.

[4] = Partition coefficient Kpart between n-octanol and aqueous tris hydrochloride; details: n-octanol/tris hcl, pH 7.4
Protocol: as §1

human erythrocytes = assay: Permeation of 59Fe labelled iron complexes into human erythrocytes; type: cell-based; details: 59Fe complex 10^-3 M, 5% erythrocyte suspension, 1 hour, 37° C., pH 7.4; mean of at least three determinations
Protocol: The accumulation of iron by human erythrocytes which are associated with the iron complexes of three compounds described in earlier Examples was studied by incubating for 1 hour at 37° C. a 5% suspension of erythrocytes in a medium consisting of the ^59 Fe labelled iron complex^(1) (10^-3 M) in aqueous sodium chloride (130 mM) buffered to pH 7.4 by tris hydrochloride (2 ml). Following this period of incubation, an aliquot of the erythrocyte/medium mixture was placed above a layer of silicone oil and the erythrocytes separated by centrifugation through the oil. The ^59 Fe levels associated with the erythrocytes and the incubation medium were then counted. By way of comparison, a similar experiment was concluded with ferric citrate.

Horse spleen ferritin [5] = biological target: T2, Horse spleen ferritin; assay: Mobilisation of iron from ferritin; type: biochemical; details: 25° C., pH 7.4
Protocol: Horse spleen ferritin (Sigma) was used without further purification and its iron content was estimated spectrophotometrically at 420 nm. The ferritin solution in phosphate buffered saline (Dulbecco-OXOID, 10^-6 M, pH 7.4) was incubated at 25° C. with the compound at 10^-4 M for 6 and 24 hours. Apoferritin (in admixture with ferritin) and the particular linked hydroxypyridone Fe^(III) complex were separated by chromatography on Sephadex G10. The absorption spectra of the high and low molecular weight fractions were recorded and the percentage of iron removed from the ferritin was calculated and is reported in Table 3. For comparative purposes, the procedure was repeated using a blank control, and also with the single ring, bidentate compound 1-ethyl-3-hydroxypyrid-4-one (at 10^-3 M). In addition, results reported in the literature for similar tests with 1×10^-3 M desferrioxamine (Crichton et al, J. Inorganic Biochem., 1980, 13, 305) and with 6×10^-3 M LICAMS (Tufano et al, Biochem. Biophys. Acta, 1981, 668, 420 ) are also given in the Table.

inverted rat jejunal sac = assay: Permeation of inverted rat jejunal sac by iron complexes; type: in vitro ADME; details: relative to ferric chloride as 1; 59Fe complexes, 37° C., up to 1 hour
From the text: Rats (male Sprague Dawley, 60 g) were killed and the jejunum removed, everted and cut into three segments (4 cm length). […] The contents of the sac were counted for ^59 Fe and measured spectrophotometrically.

- Percentage of iron removed from transferrin after 6 hours (Human transferrin): 17%
Molecule: CC(=O)N(O)CCCCCNC(=O)CCC(=O)N(O)CCCCCNC(=O)CCC(=O)N(O)CCCCCN [Desferrioxamine, desferrioxamine]
- Percentage of iron removed from ferritin, 6 hours (Horse spleen ferritin [1]; 10^-3 M, literature value (Crichton et al 1980)): 1.2%
- log Ksol [2]: 6.0

Molecule: O=C(NCCCCN(CCCNC(=O)c1cc(S(=O)(=O)O)cc(O)c1O)C(=O)c1cc(S(=O)(=O)O)cc(O)c1O)c1cc(S(=O)(=O)O)cc(O)c1O [LICAMS]
- Percentage of iron removed from ferritin, 6 hours (Horse spleen ferritin [1]; 6 × 10^-3 M, literature value (Tufano et al 1981)): 0%

- Partition coefficient Kpart, iron complex [Fe^III -(compound)3 ] [3]: 0.3
- logD at 100 µM [4]: -0.699
Molecule: O=C(Cn1cccc(O)c1=O)NCCCN(CCCNC(=O)Cn1cccc(O)c1=O)C(=O)Cn1cccc(O)c1=O [Compound 10, N-(3-hydroxy-2-oxopyrid-1-ylacetyl)-N-[3-(3-hydroxy-2-oxopyrid-1-ylacetamido)-propyl]-3-(3-hydroxy-2-oxopyrid-1-ylacetamido)-propylamine]

Molecule: Cc1c(O)c(=O)ccn1C [1,2-dimethyl-3-hydroxypyrid-4-one]
- log Ksol [2]: 9.5

Molecule: ferric citrate [Fe^III citrate]
- Amount of complex entering erythrocytes (human erythrocytes): < 5 n.mole

- Percentage of iron removed from ferritin, 6 hours (Horse spleen ferritin [5]; compound 10^-4 M): < 1%
- Percentage of iron removed from ferritin, 24 hours (Horse spleen ferritin [5]; compound 10^-4 M): 3%
Molecule: O=C(Cn1cccc(O)c1=O)NCCCCCCNC(=O)Cn1cccc(O)c1=O [Compound 4, 1,6-di-(3-hydroxy-2-oxopyrid-1-ylacetamido)-hexane]

- Percentage of iron removed from transferrin after 6 hours (Human transferrin): 32%
- Partition coefficient Kpart, iron complex [Fe^III -(compound)3 ] [3]: 0.10
- logD at 100 µM [4]: -1.77
Molecule: O=C(Cn1cccc(O)c1=O)NCCCCCCCCNC(=O)Cn1cccc(O)c1=O [Compound 5]

Molecule: Cn1cccc(O)c1=O [3-hydroxyl-1-methylpyrid-2-one]
- log Ksol [2]: 10.0

- Percentage of iron removed from transferrin after 6 hours (Human transferrin): 40%
- Partition coefficient Kpart, iron complex [Fe^III -(compound)3 ] [3]: 0.03
- Percentage of iron removed from ferritin, 6 hours (Horse spleen ferritin [5]; compound 10^-4 M): 3%
- Percentage of iron removed from ferritin, 24 hours (Horse spleen ferritin [5]; compound 10^-4 M): 10%
- logD at 100 µM [4]: -1.7
Molecule: O=C(Cn1cccc(O)c1=O)NCCN(CCNC(=O)Cn1cccc(O)c1=O)CCNC(=O)Cn1cccc(O)c1=O [Compound 8]
- Removal of iron from transferrin, comparison in words (Human transferrin; versus desferrioxamine and EDTA): markedly better results than desferrioxamine or EDTA

- Percentage of iron removed from ferritin, 6 hours (Horse spleen ferritin [5]; compound 10^-3 M): 25%
- Percentage of iron removed from ferritin, 24 hours (Horse spleen ferritin [5]; compound 10^-3 M): 44%
Molecule: CCn1ccc(=O)c(O)c1 [1-ethyl-3-hydroxypyrid-4-one, reference compound]

Molecule: O=C(O)CN(CCN(CC(=O)O)CC(=O)O)CC(=O)O [EDTA, ethylenediamine tetra-acetic acid, reference compound]
- Percentage of iron removed from transferrin after 6 hours (Human transferrin): 27%

Molecule: O=C(O)CN(CCN(CC(=O)O)CC(=O)O)CCN(CC(=O)O)CC(=O)O [DTPA, diethylenetriamine penta-acetic acid]
- log Ksol [2]: 2.0

Molecule: [Cl][Fe]([Cl])[Cl] [FeCl3, ferric chloride]
- Relative iron uptake into serosal space of jejunal sac (inverted rat jejunal sac): 1
